{"source": "patent US7727736B2", "about": "“Soluble phospholipids for use in clotting factor assays” (The University of North Carolina at Chapel Hill, priority 2003, dated 2010)", "key": {"[1]": {"experiment": "CMC of C6PS using ANS as fluorescent probe in the presence of factor IXa", "type": "physicochemical", "conditions": "200 nM factor IXa, 5 mM calcium"}, "[2]": {"biological_target": "T1, factor IXa (Homo sapiens, UniProt P00740)", "T1 construct": "intrinsic tryptophan fluorescence of factor IXa", "T1 sequence (P00740 47-191 limits assumed)": "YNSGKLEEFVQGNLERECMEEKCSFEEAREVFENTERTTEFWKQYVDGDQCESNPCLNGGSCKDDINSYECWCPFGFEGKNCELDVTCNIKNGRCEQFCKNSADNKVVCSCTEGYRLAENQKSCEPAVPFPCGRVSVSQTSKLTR", "T1 sequence (P00740 227-461 limits assumed)": "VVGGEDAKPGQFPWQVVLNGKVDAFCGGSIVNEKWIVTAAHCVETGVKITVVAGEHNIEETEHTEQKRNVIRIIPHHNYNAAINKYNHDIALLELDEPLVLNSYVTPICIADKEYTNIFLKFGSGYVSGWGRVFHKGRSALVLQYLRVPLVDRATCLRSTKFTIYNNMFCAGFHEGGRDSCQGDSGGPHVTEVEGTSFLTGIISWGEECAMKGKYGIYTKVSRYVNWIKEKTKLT", "experiment": "Amidolytic activity of factor IXa with increasing C6PS", "type": "biochemical", "conditions": "300 nM factor IXa, substrate Leu-PHG-Arg-pNA-AcOH; read-out: Kd from amidolytic activity of factor IXa", "method": "The assay was conducted in the presence of 1 mM Leu-PHG-Arg-pNA.AcOH and increasing concentrations of C6PS."}, "[3]": {"biological_target": "T1, factor IXa", "experiment": "Activation of factor X by factor IXa (proteolytic activity)", "type": "biochemical", "method": "The assay was conducted in the presence of increasing concentrations of C6PS.\nC6PS promotes the proteolytic activation of factor X by factor IXa, just as it promotes the proteolytic activation of prothrombin by factor Xa. […] The rate of activation of factor X by factor IXa in the presence of 700 μM C6PS was monitored at different concentrations of factor X (FIG. 11). The KM for this reaction was 300 nM, which is the same as that obtained with 20% PS/PC membranes (Larson et al. (1996) J. Biol. Chem. 271 3869)."}, "[4]": {"biological_target": "T2, factor Va (Bos taurus, UniProt Q28107)", "T2 sequence (Q28107 29-741 limits assumed)": "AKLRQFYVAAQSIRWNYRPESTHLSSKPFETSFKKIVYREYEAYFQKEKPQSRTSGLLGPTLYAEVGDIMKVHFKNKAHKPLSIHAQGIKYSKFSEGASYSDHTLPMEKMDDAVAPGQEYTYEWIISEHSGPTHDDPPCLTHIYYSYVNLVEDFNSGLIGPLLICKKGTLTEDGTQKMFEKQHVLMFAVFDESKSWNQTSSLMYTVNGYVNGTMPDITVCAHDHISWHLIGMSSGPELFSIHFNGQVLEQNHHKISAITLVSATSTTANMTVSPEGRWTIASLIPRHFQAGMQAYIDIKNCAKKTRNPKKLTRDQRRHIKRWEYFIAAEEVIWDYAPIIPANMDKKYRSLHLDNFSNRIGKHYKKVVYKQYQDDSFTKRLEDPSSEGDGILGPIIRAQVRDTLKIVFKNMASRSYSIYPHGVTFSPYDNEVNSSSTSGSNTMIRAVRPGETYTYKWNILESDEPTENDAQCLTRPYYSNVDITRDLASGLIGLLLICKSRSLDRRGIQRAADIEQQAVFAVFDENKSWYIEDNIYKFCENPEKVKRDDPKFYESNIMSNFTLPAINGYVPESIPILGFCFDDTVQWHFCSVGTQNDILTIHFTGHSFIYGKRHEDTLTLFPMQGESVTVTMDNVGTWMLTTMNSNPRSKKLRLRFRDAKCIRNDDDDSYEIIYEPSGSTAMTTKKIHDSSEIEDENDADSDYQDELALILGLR", "T2 sequence (Q28107 1565-2211 limits assumed)": "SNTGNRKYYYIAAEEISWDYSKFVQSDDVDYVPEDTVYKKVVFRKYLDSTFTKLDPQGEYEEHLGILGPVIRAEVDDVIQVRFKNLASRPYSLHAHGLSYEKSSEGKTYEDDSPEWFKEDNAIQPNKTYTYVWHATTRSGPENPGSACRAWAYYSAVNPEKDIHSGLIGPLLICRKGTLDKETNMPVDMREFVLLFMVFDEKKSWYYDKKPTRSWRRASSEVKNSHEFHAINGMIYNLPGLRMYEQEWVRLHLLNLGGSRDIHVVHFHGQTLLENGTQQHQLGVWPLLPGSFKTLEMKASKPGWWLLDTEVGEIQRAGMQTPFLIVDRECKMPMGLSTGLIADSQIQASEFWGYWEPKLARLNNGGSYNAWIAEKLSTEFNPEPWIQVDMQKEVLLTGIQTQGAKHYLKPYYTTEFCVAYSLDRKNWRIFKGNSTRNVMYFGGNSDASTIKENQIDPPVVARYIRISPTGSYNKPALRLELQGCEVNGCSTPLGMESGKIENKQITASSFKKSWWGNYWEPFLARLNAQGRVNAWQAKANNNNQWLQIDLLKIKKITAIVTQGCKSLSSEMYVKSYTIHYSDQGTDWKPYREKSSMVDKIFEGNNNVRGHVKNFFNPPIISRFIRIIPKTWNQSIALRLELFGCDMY", "experiment": "Factor Va inactivation by APC", "type": "biochemical, bovine", "parameters": "APC cuts three bonds in the heavy chain of factor Va; bovine factor Va (100 nM)", "method": "Aliquots of this mixture (10 μL) were added at selected time intervals to a cuvette containing prothrombin (1.4 μM), DAPA (5 μM), PCPS vesicle (50 μM), and factor Xa (10 nM) in a total assay volume of 1 mL. The fluorescence intensity of the thrombin-DAPA was monitored with time. Under these conditions, the rate of thrombin formation is proportional to the rate of DAPA fluorescence increase and is linearly related to the amount of active factor Va. The two isoforms of factor Va, Va1 (Frame A) and Va2 (Frame B) were inactivated at different rates and to different extents by APC depending on the availability of C6PS.\nProteolysis at Arg^506 leads to partial inactivation, but proteolysis at Arg^306 is necessary for full inactivation (Kalafatis & Mann (1993) J. Biol. Chemistry 268 27246; Nicolaes et al., (1995) J. Biol. Chemistry (1995) 270 21158). […] The rate of proteolysis of the bond at Arg^306 increased from undetectable to a value of kcat/KM=3-3.5×10^6 M^−1sec^−1, identical to the rate reported with PS-containing membranes."}}, "data": [{"smiles": "CCCCCC(=O)OC[C@H](COP(=O)(O)OC[C@H](N)C(=O)O)OC(=O)CCCCC", "note": "[C6PS, 1,2-dicaproyl-sn-glycero-3-phospho-L-serine]", "values": [{"measurement": "CMC of C6PS", "setting": "[1]", "result": 950, "unit": "µM"}, {"measurement": "Kd", "setting": "[2]", "result": 130, "unit": "µM"}, {"measurement": "Kd", "setting": "[3]; 10 nM IXa, 5 mM calcium, read-out: Kd from proteolytic activity of IXa (hyperbolic fit)", "result": 164, "unit": "µM"}, {"measurement": "rate of activation of factor X by factor IXa compared with 20% PS/PC membranes", "setting": "[3]; 700 μM C6PS", "result": "identical"}, {"measurement": "effect on extent of factor Va inactivation by APC", "setting": "[4]; 4 μM C6PS", "result": "only a small effect"}, {"measurement": "effect on rate of factor Va inactivation by APC", "setting": "[4]; 4 μM C6PS", "result": "no effect"}, {"measurement": "factor Va inactivation by APC", "setting": "[4]; 200 μM C6PS", "result": "complete inactivation"}]}]}
